These results are taken from publication PMC6990405, “Synthesis and Structure–Activity relationship of 1-(5-isoquinolinesulfonyl)piperazine analogues as inhibitors of Mycobacterium tuberculosis IMPDH” (European Journal of Medicinal Chemistry, 2019).

Converted amounts (≈) assume the structure as drawn. Read-outs that look alike come from different tables or passages of the source.

Assay [1] addresses Mycobacterium thermoresistible (Mth) IMPDH ΔCBS (Mycobacterium thermoresistible) (UniProt G7CNL4). The experiment in a line: crystal structure.
In the next assay the target is T1, Mtb IMPDH (Mycobacterium tuberculosis, UniProt P9WKI7).
T1 construct: made in house
The experiment in a line: IMPDH biochemical assay (inhibition of Mtb GuaB2). The conditions noted are these: Mtb IMPDH (GuaB2) enzyme.

The subject of assay [2] is wild-type M. tuberculosis strain H37Rv. The experiment in a line: microbe, parasite or virus in culture. It is filed as cell-based. The conditions noted are these: wild-type M. tuberculosis H37Rv, read-out: MIC90 against WT.
A further assay relates to M. tuberculosis. Details: method as in PMID 20934382. The conditions noted are these: cited from earlier work.
[3] abbreviates: Mycobacterium tuberculosis, H37RV.

A word on the stoichiometry N: it is a count of units in the complex or per binding partner. For orientation: IC50 means the point on the concentration scale where inhibition reaches its midpoint. A lower IC50 goes with greater potency.

Compound “Mycobacterium thermoresistible (Mth) IMPDH ΔCBS (from UniProt G7CNL4 1-513) (enzyme)” yielded a stoichiometry N in assay [1] of 4.

`O=C(CC1CCC2(CC1)OCCO2)N1CCN(S(=O)(=O)c2cccc3cnccc23)CC1` [Compound 23, 2-(1,4-dioxaspiro[4.5]decan-8-yl)-1-[4-(isoquinoline-5-sulfonyl)piperazin-1-yl]ethan-1-one] registered an IC50 against Mtb IMPDH of 3.3 ± 0.2 µM. In addition, in assay [2] (setting [3]), the MIC90 worked out at 250 µM (≈ 115 µg/mL). Taken in the same sequence, the figures for `O=C(c1cccc([N+](=O)[O-])c1)N1CCN(S(=O)(=O)c2cccc3cnccc23)CC1` [Compound 18, [4-(isoquinoline-5-sulfonyl)piperazin-1-yl](3-nitrophenyl)methanone] were 1.1 ± 0.1 µM and 12.5 µM (≈ 5.33 µg/mL). Consider `O=C(c1ccccc1)N1CCN(S(=O)(=O)c2cccc3cnccc23)CC1` [Compound 15, [4-(isoquinoline-5-sulfonyl)piperazin-1-yl](phenyl)methanone], for which the IC50 at Mtb IMPDH was 8.1 ± 0.1 µM. The MIC90 in assay [2] (setting [3]) and in assay [2] was over 100 µM throughout. As to `O=C(Cc1ccc(F)cc1)N1CCN(S(=O)(=O)c2cccc3cnccc23)CC1` [Compound 29, 2-(4-fluorophenyl)-1-(4-(isoquinolin-5-ylsulfonyl)piperazin-1-yl)ethan-1-one], the IC50 against Mtb IMPDH came out at 0.68 ± 0.05 µM. For the same compound, in assay [2] (setting [3]), the MIC90 is 25 µM (≈ 10.3 µg/mL). The corresponding values for `Cc1ccccc1CNC(=O)N1CCN(S(=O)(=O)c2cccc3cnccc23)CC1` [Compound 48, 4-(isoquinolin-5-ylsulfonyl)-N-(2-methylbenzyl)piperazine-1-carboxamide] are 0.27 ± 0.03 µM and 3.9 µM (≈ 1.66 µg/mL). Taken in the same sequence, the figures for `O=C(NCCNS(=O)(=O)c1cccc2cnccc12)C1CC1` [Compound 9, N-{2-[(isoquinoline-5-sulfonyl)amino]ethyl}cyclopropanecarboxamide] were 6.9 ± 0.2 µM and 100 µM (≈ 31.9 µg/mL). For `O=C(Nc1ccc2c(c1)OCO2)N1CCN(S(=O)(=O)c2cccc3cnccc23)CC1` [Compound 41, N-(benzo[d][1,3]dioxol-5-yl)-4-(isoquinolin-5-ylsulfonyl)piperazine-1-carboxamide], the IC50 against Mtb IMPDH was determined as 0.08 ± 0.005 µM. Also, the MIC90 in assay [2] (setting [3]) was 6.3 µM (≈ 2.78 µg/mL). Compound `COc1cc(C(=O)N2CCN(S(=O)(=O)c3cccc4cnccc34)CC2)cc(OC)c1OC` [Compound 20, [4-(isoquinoline-5-sulfonyl)piperazin-1-yl](3,4,5-trimethoxyphenyl)methanone] gave an IC50 on Mtb IMPDH of 12 ± 0.5 µM. Further, in assay [2] (setting [3]), the MIC90 was determined as 15.6 µM (≈ 7.36 µg/mL).

Turning to `O=C(Cc1ccc([N+](=O)[O-])cc1)N1CCN(S(=O)(=O)c2cccc3cnccc23)CC1` [Compound 30, 1-(4-(isoquinolin-5-ylsulfonyl)piperazin-1-yl)-2-(4-nitrophenyl)ethan-1-one], the concentration for half-maximal inhibition (IC50) on Mtb IMPDH was 5.3 ± 0.2 µM. For the same compound, the MIC90 in assay [2] (setting [3]) came to 250 µM (≈ 110 µg/mL). In turn, `CC1CN(S(=O)(=O)c2cccc3cnccc23)CCN1C(=O)Nc1ccc2c(c1)OCO2` (centres unmarked) [Compound 45, N-(benzo[d][1,3]dioxol-5-yl)-4-(isoquinolin-5-ylsulfonyl)-2-methylpiperazine-1-carboxamide] yielded an IC50 on Mtb IMPDH of 0.12 ± 0.02 µM. For the same compound, the MIC90 in assay [2] (setting [3]) stood at 12.5 µM (≈ 5.68 µg/mL). In the case of `O=S(=O)(c1cccc2cnccc12)N1CCNCC1` [5-(piperazin-1-ylsulfonyl)isoquinoline], the “MIC against M. tuberculosis” value in the assay on M. tuberculosis is given as “no MIC”. Turning to `O=C(Nc1ccc2c(c1)OCO2)N1CCC(NS(=O)(=O)c2cccc3cnccc23)CC1` [Compound 43, 4-[(isoquinoline-5-sulfonyl)amino]-N-(2H-1,3-benzodioxol-5-yl)piperidine-1-carboxamide], the IC50 against Mtb IMPDH is over 100 µM. The MIC90 in assay [2] (setting [3]) was over 100 µM.

On to `CC1CN(S(=O)(=O)c2cccc3cnccc23)CCN1C(=O)C1CCCCC1` (centres unmarked) [Compound 3, Cyclohexyl[4-(isoquinoline-5-sulfonyl)-2-methylpiperazin-1-yl]methanone], for which, on Mtb IMPDH, the IC50 was over 100 µM. In addition, the MIC90 in assay [2] (setting [3]) was determined as 100 µM (≈ 40.2 µg/mL).

In turn, `O=C(Nc1ccc(Cl)cc1)N1CCN(S(=O)(=O)c2cccc3cnccc23)CC1` [Compound 33, N-(4-chlorophenyl)-4-(isoquinolin-5-ylsulfonyl)piperazine-1-carboxamide] had an IC50 at Mtb IMPDH of 15 ± 0.5 µM. For the same compound, the MIC90 in assay [2] (setting [3]) worked out at 250 µM (≈ 108 µg/mL). At Mtb IMPDH, `Cc1cccc(Cl)c1NC(=O)N1CCN(S(=O)(=O)c2cccc3cnccc23)CC1` [Compound 40, N-(2-chloro-6-methylphenyl)-4-(isoquinolin-5-ylsulfonyl)piperazine-1-carboxamide] had an IC50 of 3.4 ± 0.1 µM. In assay [2] (setting [3]), the MIC90 amounted to 250 µM (≈ 111 µg/mL). Taken in the same sequence, the figures for `N#Cc1cccc(C(=O)N2CCN(S(=O)(=O)c3cccc4cnccc34)CC2)c1` [Compound 16, 3-[4-(isoquinoline-5-sulfonyl)piperazine-1-carbonyl]benzonitrile] were 8.6 ± 0.5 µM and 25 µM (≈ 10.2 µg/mL). For the compound `O=C(C1CCCCC1)N1CCN(S(=O)(=O)c2ccc3ccccc3c2)CC1` [Compound 8, Cyclohexyl[4-(naphthalene-2-sulfonyl)piperazin-1-yl]methanone], half-maximal inhibition at Mtb IMPDH (IC50) was put at 1.6 ± 0.1 µM. In assay [2] (setting [3]), the MIC90 was over 100 µM.
